Entries after “also recorded” stand apart in the source; their conditions may differ. Where two headings read alike, the source gives them in different places. Marks after values point to notes of the source that are not given here.
Experiments:
[1] = system: Drosophila suzukii; assay: Impact of MB on D. suzukii control: pre-infested blueberries dipped in MB emulsion; format: in vivo; settings: 1% MB, berries pre-infested 4 days, dipped 2 h, 10 days incubation at room temperature
Procedure: Assessment was conducted after 10 days incubation at room temperature.
Laboratory bioassay: Bioassays were conducted in USDA Beltsville laboratory at 25° C., 60% RH, under a 16L:8D photoperiod with ˜1700 lux light illuminance. A fume hood was maintained at same conditions with face velocity at 129 FPM. The plastic cups (32 oz, diameter 4.5 inches, deep 5 inches, or 16 oz, diameter 4.5 inches, deep 2.5 inches) were purchased from papermart.com (CA). The cover was cut into a 80 mm diameter hole and glued with an 85 mm diameter Nylon screen mesh (81×81 per inch) mesh size, BioQuip, CA). The polystyrene vials (height 95 mm, diameter 28.5 mm) and plugs were obtained from Fisher Scientific (Pittsburg, Pa.). The plastic cage (30×30×30 cm) was purchased from BugDorm (Rancho Dominguez, Calif.). Glass vial (20 mL), glass spray bottle (Amber glass with spray top, 30 mL), Petri dish (9 cm diameter), and Whatman filter paper (90 mm diameter) were obtained from VWR (Atlanta, Ga.). […]
Impact of MB on D. suzukii control: To investigate the acute toxicity of MB against D. suzukii, 100 blueberries were placed in a plastic cage (30×30×30 cm) and infested by 100 mixed sex adult D. suzukii for 4 days. […] Present of adults were then subsequently assessed and development of larvae and pupae was further inspected by dissection of the berries. […]

[2] = system: H. halys nymphs; assay: Toxicity of MB against H. halys nymphs (treated filter paper in glass vial); format: in vivo, Halyomorpha halys; settings: mortality after 24 hr
Procedure: Toxicity of MB against H. halys nymphs: The bioassays were carried out in glass vials (20 mL). Filter paper was cut into round shaped pieces (2.4 cm diameter). 50 μL MB acetone solution with different concentrations was loaded onto the filter paper evenly, and the filter paper was dried for 1 min and then put into the bottom of the vial. A small piece of green bean was put on the filter paper in the vial as food source. Different stages of H. halys nymphs were introduced into the vial and capped with a cotton ball. For each stage, 30 nymphs were used for each amount of MB loading. For the nymphs of the first instar, 10 nymphs were put into 1 vial. For the nymphs of the second and third instar, 5 nymphs were put into 1 vial. For the nymphs of the fourth instar, 3 nymphs were put into 1 vial. For the nymphs of the fifth instar, 2 nymphs were put into 1 vial. The mortality was assessed after 24 hr.
(§1) Data analysis: Comparisons of different treatments were analyzed using one-way ANOVA followed by Ryan-Eibot-Gabriel-Welsch F test (SPSS 10.0 for Windows (George, D., and P. Mallery, SPSS for Windows step by step: A simple guide and reference, 4th edition, Allyn & Bacon, 2002)) for significance at α=0.05.

[3] = system: D. suzukii; assay: Oviposition deterrent / adult toxicity of MB and other VOCs on pre-treated blueberries; format: in vivo, Drosophila suzukii; settings: for Activity against adult D. suzukii: 2 days exposure to pre-treated blueberries; for Toxicity / mortality against adult D. suzukii: blueberries soaked 2 h, 48 h (2 days) exposure; for Adults emerged from pre-treated berries / Pupae developed from pre-treated berries compared with blank control: further 10 days incubation at room temperature
Procedure: Mortality assessed after 48 hrs exposure to pre-treated blueberries (60 berries/treatment, 1% solution soaking for 2 hr) as described below.
Numbers assessed after 10 days incubation at room temperature as described below.
Mortality assessed after 48 hrs exposure to pre-treated blueberries (60 berries/treatment, soaking for 2 hr) as described below.
Numbers assessed after 10 days incubation at room temperature.
Laboratory bioassay: Bioassays were conducted in USDA Beltsville laboratory at 25° C., 60% RH, under a 16L:8D photoperiod with ˜1700 lux light illuminance. A fume hood was maintained at same conditions with face velocity at 129 FPM. The plastic cups (32 oz, diameter 4.5 inches, deep 5 inches, or 16 oz, diameter 4.5 inches, deep 2.5 inches) were purchased from papermart.com (CA). The cover was cut into a 80 mm diameter hole and glued with an 85 mm diameter Nylon screen mesh (81×81 per inch) mesh size, BioQuip, CA). The polystyrene vials (height 95 mm, diameter 28.5 mm) and plugs were obtained from Fisher Scientific (Pittsburg, Pa.). The plastic cage (30×30×30 cm) was purchased from BugDorm (Rancho Dominguez, Calif.). Glass vial (20 mL), glass spray bottle (Amber glass with spray top, 30 mL), Petri dish (9 cm diameter), and Whatman filter paper (90 mm diameter) were obtained from VWR (Atlanta, Ga.). Deionized water (DI) containing 1% emulsifier (v/v), Tween 20 and Tween 80, at 1.1 ratio was used to make different VOCs water solutions and also used as blank control.
Evaluation of MB and other VOCs as oviposition deterrent against D. suzukii: To examine the oviposition deterrent property of MB and other essential oils against D. suzukii, 10 blueberries were separately dipped in 100 mL MB or other essential oil aqueous emulsions at 1% concentration for 2 h. Another 10 blueberries were dipped in 100 mL DI water for 2 h as control. The blueberries were separately placed on different Petri dishes and allowed to air dry for 2 h. After a Petri dish containing 10 treated blueberries was put into a plastic cup (32 oz), 10 mixed sex adults D. suzukii were subsequently introduced into each cup. Mortality of the D. suzukii was examined after 48 h. After removing all insects, the blueberries were maintained at room temperature for another 10 days. Present of adults were subsequently assessed and development of larvae and pupae was further inspected by dissection of the berries.

[4] = by ingestion and inhalation; cited from earlier work
[5] = system: H. halys eggs; format: in vivo
Procedure: (§2) Ovicidal toxicity of MB and commercial pesticides: The aqueous solutions of MB with designated concentrations and commercially available pesticides with different concentrations of active ingredient (AI) were separately stored in glass spray bottles. The eggs (10 for H. halys and M. sexta, 100 for P. xylostella) were laid on filter papers in Petri dishes. Different aqueous solutions were sprayed on the surfaces of different eggs three times (˜0.5 mL) to completely cover the treatment areas. Then Petri dishes were covered with lids and maintained in a fume hood for 10 days. The Petri dishes were then inspected for presence of nymph/larvae development or numbers of unhatched eggs.
as §1

[6] = system: P. xylostella eggs; format: in vivo
Procedure: as §2, §1

[7] = system: M. sexta eggs; format: in vivo
Procedure: as §2, §1

COC(=O)c1ccccc1 [MB, methyl benzoate]
Larvae/pupae development and adult emergence from pre-infested blueberries [1]: no larvae and pupae developed or adult flies emerged
Mortality of D. suzukii in pre-infested blueberries [1]: complete mortality
LC50 (95% CL) ([2]; 1st instar nymphs): 1.03 (0.93-1.10) μL/via1
LC50 (95% CL) ([2]; 2nd instar nymphs): 1.01 (0.86-1.12) μL/via1
LC50 (95% CL) ([2]; 3rd instar nymphs): 1.23 (1.12-1.33) μL/via1
LC50 (95% CL) ([2]; 4th instar nymphs): 2.39 (2.19-2.60) μL/via1
LC50 (95% CL) ([2]; 5th instar nymphs): 1.77 (1.60-1.93) μL/via1
Activity against adult D. suzukii ([3]; 0.1% MB): no significant activity
Activity against adult D. suzukii ([3]; 0.5% MB): Little activity
Toxicity / mortality against adult D. suzukii ([3]; 1% solution): complete mortality; also recorded: potent activity
Toxicity / mortality against adult D. suzukii ([3]; 1% solution, listed as methyl benzoate): complete mortality
Adults emerged from pre-treated berries ([3]; 1% solution): no adults emerged
Pupae developed from pre-treated berries compared with blank control ([3]; 1% solution): significantly fewer pupae developed
Activity against adult D. suzukii ([3]; 5% MB): potent activity
Adults emerged from pre-treated berries ([3]; 5% MB): no adults emerged
Pupae developed from pre-treated berries compared with blank control ([3]; 5% MB): significantly fewer pupae developed
Human toxicity [4]: low to moderate human toxicity
Dosage (active ingredient) needed to reach 100% egg mortality ([5]; H. halys eggs): 0.0637 mg/cm^2
Hatchability (%) (mean ± SE) ([5]; H. halys eggs, MB 0.025%, AI dose 0.0016 mg/cm^2, 10 days exposure): 67 ± 8.8^d %
Hatchability (%) (mean ± SE) ([5]; H. halys eggs, MB 0.05%, AI dose 0.0032 mg/cm^2, 10 days exposure): 63 ± 17.6^cd %
Hatchability (%) (mean ± SE) ([5]; H. halys eggs, MB 0.1%, AI dose 0.0064 mg/cm^2, 10 days exposure): 60 ± 10.0^cd %
Hatchability (%) (mean ± SE) ([5]; H. halys eggs, MB 0.25, AI dose 0.0159 mg/cm^2, 10 days exposure): 43 ± 6.7^abcd %
Hatchability (%) (mean ± SE) ([5]; H. halys eggs, MB 1%, AI dose 0.0637 mg/cm^2, 10 days exposure): 0 ± 0.0^a %
Hatchability (%) (mean ± SE) ([5]; H. halys eggs, MB 2%, AI dose 0.1273 mg/cm^2, 10 days exposure): 0 ± 0.0^a %
Hatchability (%) (mean ± SE) ([5]; H. halys eggs, MB 4%, AI dose 0.2546 mg/cm^2, 10 days exposure): 0 ± 0.0^a %
Ovicidal potency compared with commercial pesticides, in words ([5]; H. halys eggs, MB at 0.0318 mg/cm^2 vs deltamethrin 0.0019, ζ-cypermethrin 0.0223, carbaryl 0.0080, β-cyfluthrin 0.1592, sulfur/pyrethrin 0.6525, organic essential oil product 0.3979 mg/cm^2): as potent as
LC95 (95% CL) ([5]; H. halys eggs, spray, 10 days): 0.048 mg/cm^2
Hatchability (%) (mean ± SE) ([5]; in vivo): 17 ± 12.0^ab %
LC50 (95% CL) ([5]; in vivo): 0.020 mg/cm^2
Times more toxic than organic commercial product (2-phenethyl propionate, clover oil, rosemary oil, thyme oil) ([5]; in vivo): 12 times
Times more toxic than sulfur & pyrethrin mixture ([5]; in vivo): 20 times
Times more toxic than the conventional pyrethroid (β-cyfluthrin) ([5]; in vivo): 5 times
Dose needed to reach 100% egg mortality ([6]; P. xylostella eggs): 0.0064 mg/cm^2
Hatchability (%) (mean ± SE) ([6]; P. xylostella eggs, MB 0.025%, AI dose 0.0016 mg/cm^2, 10 days exposure): 38 ± 5.5^c %
Hatchability (%) (mean ± SE) ([6]; P. xylostella eggs, MB 0.05%, AI dose 0.0032 mg/cm^2, 10 days exposure): 13 ± 5.0^ab %
Hatchability (%) (mean ± SE) ([6]; P. xylostella eggs, MB 0.1%, AI dose 0.0064 mg/cm^2, 10 days exposure): 0 ± 0.3^a %
Hatchability (%) (mean ± SE) ([6]; P. xylostella eggs, MB 0.25, AI dose 0.0159 mg/cm^2, 10 days exposure): 1 ± 0.0^a %
Hatchability (%) (mean ± SE) ([6]; P. xylostella eggs, MB 0.5%, AI dose 0.0318 mg/cm^2, 10 days exposure): 0 ± 0.0^a %
Hatchability (%) (mean ± SE) ([6]; P. xylostella eggs, MB 1%, AI dose 0.0637 mg/cm^2, 10 days exposure): 0 ± 0.0^a %
Ovicidal activity in words ([6]; P. xylostella eggs, MB at as low as 0.0032 mg/cm^2 dose): potent ovicidal activity
Dose for 100% egg mortality of P. xylostella: times less than H. halys eggs needed ([6]; P. xylostella vs H. halys eggs): 10 times
Dose for 100% egg mortality of P. xylostella: times less than M. sexta eggs needed ([6]; P. xylostella vs M. sexta eggs): 20 times
LC50 (95% CL) ([6]; in vivo): 0.001 mg/cm^2
LC95 (95% CL) ([6]; in vivo): 0.005 mg/cm^2
Ovicidal toxicity compared with commercial pesticides, in words ([7]; M. sexta eggs, MB 0.0637 mg/cm^2 vs bifenthrin & ζ-cypermethrin 0.0239 and essential oil product 0.3979 mg/cm^2): significantly better
Hatchability (%) (mean ± SE) ([7]; M. sexta eggs, MB 0.025%, AI dose 0.0016 mg/cm^2, 10 days exposure): 67 ± 8.8^c %
Hatchability (%) (mean ± SE) ([7]; M. sexta eggs, MB 0.05%, AI dose 0.0032 mg/cm^2, 10 days exposure): 63 ± 8.8^c %
Hatchability (%) (mean ± SE) ([7]; M. sexta eggs, MB 0.1%, AI dose 0.0064 mg/cm^2, 10 days exposure): 50 ± 17.3^c %
Hatchability (%) (mean ± SE) ([7]; M. sexta eggs, MB 0.25, AI dose 0.0159 mg/cm^2, 10 days exposure): 40 ± 15.3^c %
Hatchability (%) (mean ± SE) ([7]; M. sexta eggs, MB 0.5%, AI dose 0.0318 mg/cm^2, 10 days exposure): 20 ± 10.0^abc %
Hatchability (%) (mean ± SE) ([7]; M. sexta eggs, MB 1%, AI dose 0.0637 mg/cm^2, 10 days exposure): 3 ± 3.35^ab %
Hatchability (%) (mean ± SE) ([7]; M. sexta eggs, MB 2%, AI dose 0.1273 mg/cm^2, 10 days exposure): 0 ± 0.0^a %
Hatchability (%) (mean ± SE) ([7]; M. sexta eggs, MB 4%, AI dose 0.2546 mg/cm^2, 10 days exposure): 0 ± 0.0^a %
LC50 (95% CL) ([7]; M. sexta eggs, spray, 10 days): 0.015 mg/cm^2
LC95 (95% CL) ([7]; M. sexta eggs, spray, 10 days): 0.060 mg/cm^2
Toxicity against M. sexta eggs in words ([7]; MB at 0.0637 mg/cm^2 dose): potent toxic agent

From patent US9629362B1, “Methods for killing insects using methyl benzoate” (The United States of America, as represented by the …, priority 2016, dated 2017)
